Results published in patent US12440567B2, “Aqueous antibody formulation stabilized by antioxidants for parenteral administration” (AMGEN INC., priority 2007, dated 2025).

Tests used:
[1] = system: anti-streptavidin (IgG2 antibody); assay: Thermal aggregation of anti-streptavidin at 52° C. for 10 days; format: physicochemical; conditions: 10 mM antioxidant; 50 mM sodium acetate pH 5.00; no UV
Experimental: The SEC-HPLC conditions were as follows: a G3000 TOSOH SWXL column was used and the flowrate was set at 0.5 mL/min. […] Anti-streptavidin was formulated in 50 mM sodium acetate at pH 5.00. These formulations were not exposed to UV radiation but assessed on their thermal stability.

[2] = system: EPO binding to D11; assay: Binding of EPO to D11 monoclonal antibody after UV-B exposure of the formulation; design: species or system human
Experimental: For the examples below involving exposure to UVB radiation, each sample was exposed to UVB light (λ≈302 nm) for varying times, using a UVP 8W model UVLMS-38 lamp at 4° C. The formulations were then analyzed using size exclusion chromatography high pressure liquid chromatography (SEC-HPLC). Aggregation (measured via SEC-HPLC analysis) and binding (measured using CM5 gold sensor chips) were measured to determine the effect of the antioxidant on aggregation and bioactivity of the therapeutic protein. The binding activity of therapeutic protein to a ligand (e.g. to an antibody or binding partner, or, in cases where the therapeutic was an antibody, binding activity to the specific target antigen or to protein A) was determined as follows. […] The therapeutic protein-binding ligand of interest was injected until the desired immobilization level was achieved (above 5000 response units). Three different therapeutic protein-binding ligands were measured—Antibody A's target antigen, Protein A, and D11 (an antibody that binds to erythropoietin). […] The remaining activated groups were blocked with 1.0 M ethanolamine-HCl, pH 8.5. A standard curve was prepared by using native forms of the therapeutic protein of interest. Native forms of the therapeutic protein were diluted in HBS-EP buffer (pH 7.4) to concentrations between 1 and 5 μg/mL, and then injected on the column, prepared as described above to obtain a standard curve. At the end of each sample run, regeneration buffer was used to wash away any bound therapeutic protein in preparation for subsequent injections. Various UV-stressed antibody formulations were also diluted in HBS-EP buffer (pH 7.4) to a concentration within the standard curve region, and injected to quantitate the loss of bioactivity to its respective ligand-binding partner. […] The protein was exposed to the same conditions as Antibody A and Antibody B for up to 24 hours.

[3] = system: Antibody A; assay: Discoloration (yellowing) of Antibody A formulations after UV-B exposure; format: physicochemical; conditions: UV-B light 24 hours
Text: Discoloration can be assessed visually or by measurement of absorbance at a specific wavelength.
Proteins may also become yellow in color following exposure to UV light.
Pyridoxine is another water soluble B-vitamin (B6) which was studied as a possible antioxidant for preventing protein aggregation caused by UV-B exposure.

[4] = system: Antibody A binding to protein A; assay: Binding of Antibody A to protein A (CM5 sensor chip) after UV-B exposure of the formulation; conditions: 20 mM antioxidant; pH 5.20 acetate buffer; 302 nm UV light over 24 hours
Experimental: (§1) For the examples below involving exposure to UVB radiation, each sample was exposed to UVB light (λ≈302 nm) for varying times, using a UVP 8W model UVLMS-38 lamp at 4° C. The formulations were then analyzed using size exclusion chromatography high pressure liquid chromatography (SEC-HPLC). Aggregation (measured via SEC-HPLC analysis) and binding (measured using CM5 gold sensor chips) were measured to determine the effect of the antioxidant on aggregation and bioactivity of the therapeutic protein. The binding activity of therapeutic protein to a ligand (e.g. to an antibody or binding partner, or, in cases where the therapeutic was an antibody, binding activity to the specific target antigen or to protein A) was determined as follows. […] The therapeutic protein-binding ligand of interest was injected until the desired immobilization level was achieved (above 5000 response units). Three different therapeutic protein-binding ligands were measured—Antibody A's target antigen, Protein A, and D11 (an antibody that binds to erythropoietin). […] The remaining activated groups were blocked with 1.0 M ethanolamine-HCl, pH 8.5. […] Various UV-stressed antibody formulations were also diluted in HBS-EP buffer (pH 7.4) to a concentration within the standard curve region, and injected to quantitate the loss of bioactivity to its respective ligand-binding partner.

[5] = system: EPO; assay: SEC-HPLC aggregation/degradation of EPO after UV-B exposure; format: physicochemical, human; conditions: pH 6.90, 302 nm UV-B 24 hours
Experimental: For the examples below involving exposure to UVB radiation, each sample was exposed to UVB light (λ≈302 nm) for varying times, using a UVP 8W model UVLMS-38 lamp at 4° C. The formulations were then analyzed using size exclusion chromatography high pressure liquid chromatography (SEC-HPLC). Aggregation (measured via SEC-HPLC analysis) and binding (measured using CM5 gold sensor chips) were measured to determine the effect of the antioxidant on aggregation and bioactivity of the therapeutic protein. The SEC-HPLC conditions were as follows: a G3000 TOSOH SWXL column was used and the flowrate was set at 0.5 mL/min. […] FIG. 4 (EPO), FIG. 5 (anti-streptavidin), and FIG. 6 (Antibody A) show SEC-HPLC chromatograms of each proteins following exposure to 302 nm UV-B light for 24 hours. […] Each formulation was then exposed to 302 nm UV-B light for 24 hours. The protein formulation was then analyzed using SEC-HPLC.

[6] = system: Antibody A binding to its target antigen; assay: Binding of Antibody A to its target antigen (CM5 sensor chip) after UV-B exposure of the formulation; conditions: 20 mM antioxidant; pH 5.20 acetate buffer; 302 nm UV light over 24 hours
Experimental: as §1

[7] = system: anti-streptavidin mAb (IgG2); assay: SEC-HPLC aggregation of anti-streptavidin (IgG2) after UV-B exposure; format: physicochemical; conditions: 20 mM antioxidant; 1 mg/mL anti-streptavidin, 10 mM sodium acetate, 5% sorbitol, pH 5.00; 302 nm UV-B 24 hours
Experimental: (§2) The SEC-HPLC conditions were as follows: a G3000 TOSOH SWXL column was used and the flowrate was set at 0.5 mL/min. […] For both IgG1 and IgG2, the mobile phase was 80 mM sodium phosphate, 300 mM sodium perchlorate, 10% isopropanol, pH 7.2, and each sample was run for 45 minutes.
(§3) For FIG. 5, the anti-streptavidin formulation was prepared having the following characteristics: 1 mg/mL anti-streptavidin mAb (IgG2), 10 mM sodium acetate, 5% sorbitol, and pH 5.00. For FIG. 6, the Antibody A formulation was prepared having the following characteristics: 1 mg/mL Antibody A (IgG1), 10 mM sodium acetate, 9% sucrose, and pH 5.20.

[8] = system: Antibody A (IgG1); assay: SEC-HPLC aggregation of Antibody A (IgG1) after UV-B exposure; format: physicochemical; conditions: 20 mM antioxidant; 1 mg/mL Antibody A, 10 mM sodium acetate, 9% sucrose, pH 5.20; 302 nm UV-B 24 hours
Experimental: as §2, §3

- binding of EPO to D11 mAb after UV light exposure ([2]; 20 mM antioxidant, up to 24 hours UV): able to significantly preserve
- yellowing of Antibody A formulation ([3]; 10 mM additive alone): no appreciable yellowing
- yellowing of Antibody A formulation ([3]; 10 mM antioxidant in the presence of 10 mM methionine): no appreciable yellowing
- binding of Antibody A to protein A after UV exposure [4]: preserved
- amount of aggregate of EPO (SEC-HPLC) ([5]; 20 mM antioxidant, 1 mg/mL EPO, 25 mM sodium phosphate, 125 mM sodium chloride): dramatically reduced
- binding of Antibody A to its target antigen after UV exposure [6]: preserved
- amount of aggregate of anti-streptavidin (SEC-HPLC) [7]: dramatically reduced
- amount of aggregate of Antibody A (SEC-HPLC) [8]: dramatically reduced
Compound: COc1cc(/C=C/C(=O)O)ccc1O [ferulic acid]
- aggregation of anti-streptavidin after 10 days at 52° C. [1]: contributed to the aggregation of anti-streptavidin
- EPO binding activity to D11 during UV-B exposure ([2]; 0.1 mM antioxidant, UV-B up to 24 hours): able to protect the EPO from degradation and preserve its binding activity
- amount of EPO dimer and aggregate caused by UV light (SEC-HPLC) ([5]; 0.1 mM antioxidant, 0.336 mg/mL EPO, 20 mM sodium phosphate): able to reduce the amount of EPO dimer and aggregate
- prevention of EPO degradation compared with 10 mM methionine (SEC-HPLC) ([5]; 0.1 mM antioxidant, 0.336 mg/mL EPO): able to prevent EPO degradation more effectively than 10 mM methionine
